The values that follow come from patent US7019135B2, “Anti-viral pyrimidine nucleoside analogues” (University College Cardiff Consultants Limited, priority 2000, dated 2006).

Entries after “also recorded” stand apart in the source; their conditions may differ. A value given as a limit tells only on which side of the number the result lay.

Series [1] has as its system CMV. To be noted: said in WO 98/49177; cited from earlier work.
Series [2] deals with CMV strain AD169. In words: CMV strain AD169 induced cytopathicity in HEL cells. It counts as cell-based, cytomegalo virus. To be noted: Human betaherpesvirus 5, AD169, 168 h, 50% reduction of virus induced cytopathicity, 7 days post infection. On the procedure:
(§1) Each of the products of Examples 1 to 9 was tested in vitro in tissue cultures for toxicity and for potent antiviral actions with respect to cytomegalo virus (CMV). EC50/μM CMV-AD169 is the drug concentration in μM required to reduce by 50% CMV strain AD169 induced cytopathicity in human embryonic lung fibroblast (HEL) cells measured 7 days post infection compared to untreated control. Further details of the methodology employed can be found in McGuigan et al. J. Med. Chem., 1999, 42, 4479-4484.
On the technique in general: Protection from cytopathic effect is a common read-out in antiviral testing.

In series [3] the test system is CMV strain Davis. Nature of the series: CMV strain Davis induced cytopathicity in HEL cells. It counts as cell-based, cytomegalo virus. As to conditions: Human betaherpesvirus 5, 168 h, 50% reduction of virus induced cytopathicity, 7 days post infection. On the procedure:
Each of the products of Examples 1 to 9 was tested in vitro in tissue cultures for toxicity and for potent antiviral actions with respect to cytomegalo virus (CMV). EC50/μM CMV Davis is the drug concentration in μM required to reduce by 50% CMV strain Davis induced cytopathicity in human embryonic lung fibroblast (HEL) cells measured 7 days post infection compared to untreated control. Further details of the methodology employed can be found in McGuigan et al. J. Med. Chem., 1999, 42, 4479-4484.

The test system of series [4] is VZV YS strain. In words: VZV YS strain induced cytopathicity in HEL cells. As to conditions: Human alphaherpesvirus 3, 168 h, 50% reduction of VZV induced cytopathicity, 7 days post infection. Format: cell-based, Varicella zoster virus. As for the experimental part:
(§2) The compound of Example 3 wherein R is -nC10H21 was tested to assess its potency against VZV. Employing the equivalent EC50 assay as set out above, namely a measurement of the drug concentration required to reduce by 50% the VZV induced cytopathicity in human embryonic fibroblast (HEL) measured 7 days post infection, a concentration of 40 μM was found with respect to VZV OKA strain and a concentration of 20 μM was measured with respect to VZV YS strain.

For series [5], the system named is human embryonic lung cells. Nature of the series: minimum cytotoxic concentration to human embryonic lung cells. Format: cell-based. As to conditions: for MCC/μM: minimum cytotoxic concentration, human embryonic lung cells; for toxicity (in words): summary of the table data. As for the experimental part: Each of the products of Examples 1 to 9 was tested in vitro in tissue cultures for toxicity and for potent antiviral actions with respect to cytomegalo virus (CMV). MCC/μM is the minimum cytotoxic concentration to human embryonic lung cells. Further details of the methodology employed can be found in McGuigan et al. J. Med. Chem., 1999, 42, 4479-4484.

The test system of series [6] is VZV OKA strain. Nature of the series: VZV OKA strain induced cytopathicity in HEL cells. Format: cell-based, Varicella zoster virus. As to conditions: Human alphaherpesvirus 3, HEL, 168 h, read-out: EC50 VZV OKA strain. On the procedure: as §2
Series [7] has as its system cytomegalo virus (CMV). Nature of the series: anti-CMV activity in tissue culture, summary in words of the table. It counts as cell-based. To be noted: for anti-CMV activity (in words): summary of the table data, comparison with Ganciclovir. As for the experimental part:
as §1, with “EC50/μM CMV Davis is” for “Further details of”, “drug concentration” for “methodology employed can be found”, “μM required to reduce by 50% CMV strain Davis induced cytopathicity in human embryonic lung fibroblast (HEL) cells measured 7 days post infection compared to untreated control.” for “McGuigan et al. J. Med. Chem., 1999, 42, 4479-4484.”

Series [8] is described as follows: concentration required to reduce the cell number by 50%. Format: cell-based. To be noted: human, human embryonic lung cells; concentration reducing the cell number by 50%. As for the experimental part: Each of the products of Examples 1 to 9 was tested in vitro in tissue cultures for toxicity and for potent antiviral actions with respect to cytomegalo virus (CMV). CC50/μM is the compound concentration required to reduce the cell number by 50%. Further details of the methodology employed can be found in McGuigan et al. J. Med. Chem., 1999, 42, 4479-4484.

For series [9], the system named is HSV-2. As to conditions: in vitro; Can. J. Chem. 74, 1609, 1996; cited from earlier work.
The test system of series [10] is VZV. As to conditions: in vitro; Can. J. Chem. 74, 1609, 1996; cited from earlier work.
For series [11], the system named is HSV-1. To be noted: in vitro; Can. J. Chem. 74, 1609, 1996; cited from earlier work.
Series [12] deals with CMV. To be noted: in vitro; Can. J. Chem. 74, 1609, 1996; cited from earlier work.
Series [13] deals with Varicella zoster virus (VZV). To be noted: said in WO 98/49177; cited from earlier work.

For `O=c1nc2oc(CCCCCCCCCCl)cc2cn1C1CC(O)C(CO)O1` (centres unmarked) [6-(9-chlorononyl)-3-(4-hydroxy-5-(hydroxymethyl)tetrahydro-2-furanyl)-2,3-dihydrofuro[2,3,-d] pyrimidin-2-one], the “anti-CMV activity (in words)” value in series [1] is “demonstrate anti-CMV activity”.
Broadly, the EC50 is the concentration giving half of the maximal effect. As usually defined, the CC50 is the concentration that lowers cell viability or growth by half. High values mean lower toxicity to the cells, low ones greater toxicity to the cells. Consider `CCCCCCCCCCc1cc2cn(C3CCC(CO)O3)c(=O)nc2o1` [Example 3, 3-[2′,3′-dideoxy-ribo-β-D-furanosyl]-6-decyl-2,3-dihydrofuro[2,3-d]pyrimidin-2-one], for which the half-maximal effective concentration (EC50) amounted to 2.6 µM in [2], 3.2 µM in series [3], 20 µM in series [4] and 40 µM in series [6]. Further, in [5], the MCC/μM is >200 µM. In series [5], the “toxicity (in words)” value was “acceptable level of toxicity”. Also, the “activity against CMV compared with VZV (in words)” value in series [7] (CMV versus VZV EC50) is “substantially more active against CMV, than against VZV”. Besides, in [7], the “anti-CMV activity (in words)” value is given as “at least comparable to that of the known drug Ganciclovir”. Also, the CC50 in series [8] is > 200 µM.
In the case of `CCCCCCCCCc1cc2cn(C3CCC(CO)O3)c(=O)nc2o1` [Example 6, 3-[2′,3′-dideoxy-ribo-β-D-furanosyl]-6-nonyl-2,3-dihydrofuro[2,3-d]pyrimidin-2-one], the EC50 in series [2] stood at 1.2 µM; in series [3] it was 1.3 µM. Further, the MCC/μM in series [5] is 200 µM. The “toxicity (in words)” value in series [5] is “acceptable level of toxicity”. Besides, the “anti-CMV activity (in words)” value in [7] is given as “potent anti-CMV activity; also recorded: at least comparable to that of the known drug Ganciclovir”. Also, the half-maximal cytotoxic concentration (CC50) in series [8] is > 200 µM.
In the case of `O=c1nc2occc2cn1C1CC(O)C(CO)O1` (centres unmarked), the “activity against HSV-2 (in words)” value in [9] was “inactive”. The “activity against VZV (in words)” value in series [10] was “inactive”. In addition, the “activity against HSV-1 (in words)” value in [11] is “inactive”. Moreover, in series [12], the “activity against CMV (in words)” value is “inactive”.
As for `CCCCCCCCCCCCc1cc2cn(C3CCC(CO)O3)c(=O)nc2o1` [Example 4, 3-[2′,3′-dideoxy-ribo-β-D-furanosyl]-6-dodecyl-2,3-dihydrofuro[2,3-d]pyrimidin-2-one], in series [2], the EC50 worked out at 3.7 µM. This compound also registered an EC50 in series [3] of 5 µM. For the same compound, in series [5], the MCC/μM was found to be 200 µM and the “toxicity (in words)” value is given as “acceptable level of toxicity”. Further, the “anti-CMV activity (in words)” value in series [7] is “at least comparable to that of the known drug Ganciclovir”. The 50% cytotoxic concentration (CC50) in [8] was > 200 µM.
With `CCCCCCCCc1cc2cn(C3CCC(CO)O3)c(=O)nc2o1` [Example 2, 3-[2′3′-dideoxy-ribo-β-D-furanosyl]-6-octyl-2,3-dihydrofuro[2,3-d]pyrimidin-2-one], the midpoint of the response in [2], the EC50, lay at 1.5 µM. Moreover, a half-maximal effect in [3] (EC50) was put at 2.4 µM. Also, in series [5], the MCC/μM amounted to 20 µM; the “toxicity (in words)” value is “toxicity greater than any of the compounds of Examples 1, 3, 4, 5 and 6”. Further, in series [7], the “anti-CMV activity (in words)” value was “potent anti-CMV activity”. For the same compound, the CC50 in series [8] amounted to 112 µM.
As to `CCCCCCc1cc2cn(C3CCC(CO)O3)c(=O)nc2o1` [Example 1, 3-[2′,3′-dideoxy-ribo-β-D-furanosyl]-6-hexyl-2,3-dihydrofuro[2,3-d]pyrimidin-2-one], the results for the EC50 in series [2] and in series [3] were 32 µM and > 50 µM, respectively. The MCC/μM in series [5] worked out at 200 µM. The CC50 in [8] turned out to be 143 µM.
The matching figures for `CCCCCCCCCCCCCCc1cc2cn(C3CCC(CO)O3)c(=O)nc2o1` [Example 5, 3-[2′,3′-dideoxy-ribo-β-D-furanosyl]-6-tetradecyl-2,3-dihydrofuro[2,3-d]pyrimidin-2-one]: 25 µM, 40 µM, 200 µM and > 200 µM.
`Nc1nc(O)c2ncn(COC(CO)CO)c2n1` [Ganciclovir, reference compound]: the EC50 in series [2] turned out to be 2.6 µM; in series [3], 3.4 µM. Further, the MCC/μM in series [5] is >150 µM.
On to `CCCCOCCCCCCCCCc1cc2cn(C3CCC(CO)O3)c(=O)nc2o1` [Example 8, 3-(2′-3′-Dideoxy-β-D-ribofuranosyl)-6-[9-butyloxynonyl]-2,3-dihydrofuro[2,3-d]pyrimidin-2-one], for which the EC50 in series [2] was 1.2 µM. The 50% effective concentration (EC50) in series [3] was found to be 1 µM. Further, in [5], the MCC/μM was 5 µM; the “toxicity (in words)” value is “toxicity greater than any of the compounds of Examples 1, 3, 4, 5 and 6”. Besides, in series [7], the “anti-CMV activity (in words)” value is on record as “potent anti-CMV activity”. The same compound displayed a CC50 in series [8] of 200 µM.
`CCCCCCCCCCc1cc2cn([C@H]3C[C@H](O)[C@@H](CO)O3)c(=O)nc2o1` [3-(2′-deoxy-β-D-ribofuranosyl)-6-decyl-2,3-dihydrofuro[2,3-d]pyrimidin-2-one]: the “anti-Varicella zoster virus (VZV) activity (in words)” value in series [13] was “potent”.
In series [2], `O=c1nc2oc(CCCCCCCCCOCCCCCl)cc2cn1C1CCC(CO)O1` [Example 9, 3-(2′-3′-Dideoxy-β-D-ribofuranosyl)-6-[9-(4-chlorobutoxy)nonyl]-2,3-dihydrofuro[2,3-d]pyrimidin-2-one] registered an EC50 of 2.6 µM. For the same compound, the EC50 in [3] stood at 1 µM. In addition, in [5], the MCC/μM came to 20 µM; the “toxicity (in words)” value was “toxicity greater than any of the compounds of Examples 1, 3, 4, 5 and 6”. Further, in series [7], the “anti-CMV activity (in words)” value is “potent anti-CMV activity”. In addition, in [8], the half-maximal cytotoxic concentration (CC50) is > 200 µM.
As to `CCCCCCCCCCCc1cc2cn(C3CCC(CO)O3)c(=O)nc2o1` [Example 7, 3-[2′,3′-dideoxy-ribo-β-D-furanosyl]-6-undecyl-2,3-dihydrofuro[2,3-d]pyrimidin-2-one], it took 1.4 µM to reach a half-maximal effect in [2] (EC50). The EC50 in [3] amounted to 1.2 µM. Besides, in [5], the MCC/μM was 50 µM; the “toxicity (in words)” value is “toxicity greater than any of the compounds of Examples 1, 3, 4, 5 and 6”. Moreover, the “anti-CMV activity (in words)” value in series [7] is reported as “potent anti-CMV activity”. For the same compound, in [8], the cytotoxic concentration (CC50) is > 200 µM.
